Consider 16 compounds from patent publication US12187713B2, “Immunomodulators, compositions and methods thereof” (Betta Pharmaceuticals Co., Ltd, priority 2019, dated 2025).

pIC50: −log10 of the molar value.

Broadly, the pIC50 is the IC50 on a negative log10 scale, so that one unit is a factor of ten. Lower therefore signals a high IC50.

PD-1/PD-L1, sequence (Q9NZQ7 19-238): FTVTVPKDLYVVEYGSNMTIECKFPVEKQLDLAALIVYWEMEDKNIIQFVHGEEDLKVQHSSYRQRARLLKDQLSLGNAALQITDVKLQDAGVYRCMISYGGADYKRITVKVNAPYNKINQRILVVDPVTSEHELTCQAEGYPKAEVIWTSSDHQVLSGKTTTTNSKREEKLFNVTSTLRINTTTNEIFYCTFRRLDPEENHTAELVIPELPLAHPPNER

The first experiment has as its target PD-1/PD-L1 (Homo sapiens (Human), UniProt Q9NZQ7). The experiment is described as follows: PD-1/PD-L1 Binding Assay (Alphascreen). The note with it: numeric values. In outline: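 PD-1/PD-L1 binding detected by anti-6×His acceptor and streptavidin donor beads after 120 min in the dark at 25 °C. Beforehand, the two proteins were incubated 15 min at 25 °C with inhibitor at 0.015–300 nM (1% DMSO). IC50 comes from a log concentration–response curve.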
Compound `Cc1c(-c2ccc(CNCCO)cc2)cccc1-c1cccc(-c2nc3cc(CN4CCC[C@H]4C(=O)O)c(OC(F)F)cc3o2)c1C` [Example 217, ((6-(difluoromethoxy)-2-(4″-(((2-hydroxyethyl)amino)methyl)-2,2′-dimethyl-[1,1′:3′,1″-terphenyl]-3-yl)benzo[d]oxazol-5-yl)methyl)-L-proline] had a pIC50 of 9.17.
`Cc1c(-c2nc3cc(CN[C@@H]4CCC[C@@H]4O)ccc3o2)cccc1-c1cccc(-c2nc3cc(CN4CCC[C@H]4C(=O)O)c(OC(F)F)cc3o2)c1C` [Example 99, ((6-(difluoromethoxy)-2-(3′-(5-((((1R,2S)-2-hydroxycyclopentyl)amino)methyl)benzo[d]oxazol-2-yl)-2,2′-dimethyl-[1,1′-biphenyl]-3-yl)benzo[d]oxazol-5-yl)methyl)-L-proline] gave a pIC50 of 9.09.
Same read-out and setting: the value for `Cc1c(-c2nc3cc(CN[C@@H]4CCC[C@@H]4O)c(OC(F)F)cc3o2)cccc1-c1cccc(-c2nc3cc(CN4CCC[C@H]4C(=O)O)c(OC(F)F)cc3o2)c1C` [Example 25, ((6-(difluoromethoxy)-2-(3′-(6-(difluoromethoxy)-5-((((1R,2S)-2-hydroxycyclopentyl)amino)methyl)benzo[d]oxazol-2-yl)-2,2′-dimethyl-[1,1′-biphenyl]-3-yl)benzo[d]oxazol-5-yl)methyl)-L-proline] was 9.52; that for `Cc1c(-c2ccc(NC(=N)N)cc2)cccc1-c1cccc(-c2nc3cc(CN4CCC[C@H]4C(=O)O)c(OC(F)F)cc3o2)c1C` [Example 225, ((6-(difluoromethoxy)-2-(4″-guanidino-2,2′-dimethyl-[1,1′:3,1″-terphenyl]-3-yl)benzo[d]oxazol-5-yl)methyl)-L-proline] was 8.70; that for `Cc1c(-c2nc3cc(CNCCO)c(OCc4cncc(S(C)(=O)=O)c4)cc3o2)cccc1-c1cccc(-c2nc3cc(CN4CCC[C@H]4C(=O)O)c(OC(F)F)cc3o2)c1C` [Example 121, ((6-(difluoromethoxy)-2-(3′-(5-(((2-hydroxyethyl)amino)methyl)-6-((5-(methylsulfonyl)pyridin-3-yl)methoxy)benzo[d]oxazol-2-yl)-2,2′-dimethyl-[1,1′-biphenyl]-3-yl)benzo[d]oxazol-5-yl)methyl)-L-proline] was 9.22.
`Cc1c(-c2nc3cc(CN(C)CCO)c(OC(F)F)cc3o2)cccc1-c1cccc(-c2nc3cc(CN4CCC[C@H]4C(=O)O)c(OC(F)F)cc3o2)c1C` [Example 17, ((6-(difluoromethoxy)-2-(3′-(6-(difluoromethoxy)-5-(((2-hydroxyethyl)(methyl)amino)methyl)benzo[d]oxazol-2-yl)-2,2′-dimethyl-[1,1′-biphenyl]-3-yl)benzo[d]oxazol-5-yl)methyl)-L-proline]: the pIC50 is 8.92. This pIC50 lies 0.30 log units lower than the previous one.

Still in this experiment, the particulars now being: range symbols.
With `Cc1c(-c2nc3cc(CN4CCC[C@H]4C(=O)O)c(OC(F)F)cc3o2)cccc1-c1cccc(-c2nc3cc(CNC4CC(O)C4)cc(C#N)c3o2)c1C` (stereo partly shown) [Example 155], the pIC50 is 8.30 to 10.00.
Still for that read-out and setting: the value for `Cc1c(-c2nc3cc(CN4CCC[C@H]4C(=O)O)c(OC(F)F)cc3o2)cccc1-c1cccc(-c2ccc(CN3CCCC3)cc2F)c1C` [Example 220, ((6-(difluoromethoxy)-2-(2″-fluoro-2,2′-dimethyl-4″-(pyrrolidin-1-ylmethyl)-[1,1′:3′,1″- terphenyl]-3-yl)benzo[d]oxazol-5-yl)methyl)proline] was 8.30 to 10.00; that for `Cc1c(Nc2nccc3cc(CN4CCC(O)C4)cnc23)cccc1-c1cccc(-c2nc3cc(CN4CC[C@@H](C(=O)O)C4)c(OC(F)F)cc3o2)c1C` (stereo partly drawn) [Example 181, (3R)-1-((6-(difluoromethoxy)-2-(3′-((3-((3-hydroxypyrrolidin-1-yl)methyl)-1,7-naphthyridin-8-yl)amino)-2,2′-dimethyl-[1,1′-biphenyl]-3-yl)benzo[d]oxazol-5-yl)methyl)pyrrolidine-3-carboxylic acid] was 8.30 to 10.00; that for `Cc1c(-c2nc3cc(CN4CCC[C@H]4C(=O)O)c(OC(F)F)cc3o2)cccc1-c1cccc(-c2nc3cc(CN4CC(C)(CN)C4)cc(C#N)c3o2)c1C` [Example 161, ((2-(3′-(5-((3-(aminomethyl)-3-methylazetidin-1-yl)methyl)-7-cyanobenzo[d]oxazol-2-yl)-2,2′-dimethyl-[1,1′-biphenyl]-3-yl)-6-(difluoromethoxy)benzo[d]oxazol-5-yl)methyl)-L-proline] was 8.30 to 10.00.
`Cc1c(-c2nc3cc(CN4CCC[C@H]4C(=O)O)c(OC(F)F)cc3o2)cccc1-c1cccc(-c2nc3cc(CN4CCC(C(N)=O)C4)cc(C#N)c3o2)c1C` (stereo partly drawn) [Example 315, ((2-(3′-(5-((3-carbamoylpyrrolidin-1-yl)methyl)-7-cyanobenzo [d]oxazol-2-yl)-2,2′-dimethyl-[1,1′-biphenyl]-3-yl)-6-(difluoromethoxy)benzo[d]oxazol-5-yl)methyl)-L-proline] gave a pIC50 of 8.30 to 10.00.
Compound `CNCc1cc2nc(-c3cccc(-c4cccc(-c5nc6cc(CN7CCC[C@H]7C(=O)O)c(OC(F)F)cc6o5)c4C)c3C)oc2cc1OCc1ccc(S(C)(=O)=O)cc1` [Example 125, ((6-(difluoromethoxy)-2-(2,2′-dimethyl-3′-(5-((methylamino)methyl)-6-((4-(methylsulfonyl)benzyl)oxy)benzo[d]oxazol-2-yl)-[1,1′-biphenyl]-3-yl)benzo[d]oxazol-5-yl)methyl)-L-proline] gave a pIC50 of 8.30 to 10.00.
`Cc1c(-c2nc3cc(CN4CCC[C@H]4C(=O)O)c(OC(F)F)cc3o2)cccc1-c1cccc(-c2nc3cc(CN4CC(N(C)C5COC5)C4)cc(C#N)c3o2)c1C` [Example 149, ((2-(3′-(7-cyano-5-((3-(methyl(oxetan-3-yl)amino)azetidin-1-yl)methyl)benzo[d]oxazol-2-yl)-2,2′-dimethyl-[1,1′-biphenyl]-3-yl)-6-(difluoromethoxy)benzo[d]oxazol-5-yl)methyl)-L-proline] gave a pIC50 of 8.30 to 10.00.
The same measure, in the same setting: the value for `COc1nc(-c2cccc(-c3cccc(-c4nc5cc(CN6CCC[C@H]6C(=O)O)c(OC(F)F)cc5o4)c3C)c2C)ccc1CN1C2CCC1CC2` [Example 278, ((2-(3′-(5-(((1s,4s)-7-azabicyclo[2.2.1]heptan-7-yl)methyl)-6-methoxypyridin-2-yl)-2,2′-dimethyl-[1,1′-biphenyl]-3-yl)-6-(difluoromethoxy)benzo[d]oxazol-5-yl)methyl)-L-proline] was 8.30 to 10.00; that for `Cc1c(-c2nc3c(o2)CCN(CCC(=O)O)C3)cccc1-c1cccc(-c2nc3cc(CN4CCC[C@H]4C(=O)O)c(OC(F)F)cc3o2)c1C` [Example 187, ((2-(3′-(5-(2-carboxyethyl)-4,5,6,7-tetrahydrooxazolo[4,5-c]pyridin-2-yl)-2,2′-dimethyl-[1,1′-biphenyl]-3-yl)-6-(difluoromethoxy)benzo[d]oxazol-5-yl)methyl)-L-proline] was 8.30 to 10.00.
Regarding `Cc1c(-c2nc3cc(CN4CCC[C@H]4C(=O)O)c(OC(F)F)cc3o2)cccc1-c1cccc(-c2nc3cc(CNC4(C)COC4)cc(C#N)c3o2)c1C` [Example 133, ((2-(3′-(7-cyano-5-(((3-methyloxetan-3-yl)amino)methyl)benzo[d]oxazol-2-yl)-2,2′-dimethyl-[1,1′-biphenyl]-3-yl)-6-(difluoromethoxy)benzo[d]oxazol-5-yl)methyl)-L-proline], the pIC50 was 8.30 to 10.00.
